Holding throughout (type): biochemical
For one assay, the target named is TYK2 (Homo sapiens (Human), UniProt P29597). Put plainly: JAK Caliper Enzyme Assay at 1 mM ATP, TYK2. Put shortly: (§1)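 Inhibition is measured as reduced phosphorylation of a synthetic peptide by the recombinant human kinase domain at 1 mM ATP. Conditions give 20–30% conversion at room temperature before EDTA quench, and on-chip separation of labelled substrate and product yields percent conversion for dose–response plotting.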
Chain of TYK2 (P29597 897-1176): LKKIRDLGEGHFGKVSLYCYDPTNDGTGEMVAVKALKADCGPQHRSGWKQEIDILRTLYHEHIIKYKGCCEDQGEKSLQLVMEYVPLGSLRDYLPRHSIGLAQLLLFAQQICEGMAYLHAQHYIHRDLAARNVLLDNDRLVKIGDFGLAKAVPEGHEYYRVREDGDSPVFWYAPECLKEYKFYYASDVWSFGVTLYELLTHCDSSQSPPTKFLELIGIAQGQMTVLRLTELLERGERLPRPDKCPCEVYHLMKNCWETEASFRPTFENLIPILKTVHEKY

The next assay addresses JAK1 (Homo sapiens (Human), UniProt P23458). Put plainly: JAK Caliper Enzyme Assay at 1 mM ATP, JAK1. The essentials:
(§2)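 Recombinant human kinase domains phosphorylate a fluorescent synthetic peptide at 1 mM ATP, room temperature, with enzyme and time tuned for 20-30% conversion; EDTA-stopped. Product/substrate separated by microfluidic mobility shift; percent effect versus DMSO and positive controls fitted to IC50 (nM).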

The target of another assay is JAK2 (Homo sapiens (Human), UniProt O60674). Put plainly: JAK Caliper Enzyme Assay at 1 mM ATP, JAK2. The essentials: as §1
Chain of JAK2 (O60674 849-1124): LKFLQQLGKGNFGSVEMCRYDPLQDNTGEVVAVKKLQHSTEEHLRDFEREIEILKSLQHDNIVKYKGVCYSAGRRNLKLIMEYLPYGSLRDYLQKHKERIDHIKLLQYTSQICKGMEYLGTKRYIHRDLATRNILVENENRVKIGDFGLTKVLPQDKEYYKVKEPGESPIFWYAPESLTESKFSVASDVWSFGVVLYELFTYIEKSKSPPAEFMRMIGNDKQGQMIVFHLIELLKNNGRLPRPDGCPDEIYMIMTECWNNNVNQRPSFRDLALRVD
The next assay addresses JAK3 (Homo sapiens (Human), UniProt P52333). Briefly: JAK Caliper Enzyme Assay at 1 mM ATP, JAK3. The essentials: as §2

Some results are limits rather than exact numbers.

Chain of JAK3 (P52333 822-1111): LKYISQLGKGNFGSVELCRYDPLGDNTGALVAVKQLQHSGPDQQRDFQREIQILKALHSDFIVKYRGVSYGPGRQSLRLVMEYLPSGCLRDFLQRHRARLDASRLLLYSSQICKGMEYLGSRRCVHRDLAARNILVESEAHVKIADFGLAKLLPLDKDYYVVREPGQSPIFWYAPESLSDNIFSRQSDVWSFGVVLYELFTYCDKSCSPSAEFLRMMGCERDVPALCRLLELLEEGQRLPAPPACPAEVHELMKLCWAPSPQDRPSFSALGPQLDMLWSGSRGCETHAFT
Chain of JAK1 (P23458 875-1153): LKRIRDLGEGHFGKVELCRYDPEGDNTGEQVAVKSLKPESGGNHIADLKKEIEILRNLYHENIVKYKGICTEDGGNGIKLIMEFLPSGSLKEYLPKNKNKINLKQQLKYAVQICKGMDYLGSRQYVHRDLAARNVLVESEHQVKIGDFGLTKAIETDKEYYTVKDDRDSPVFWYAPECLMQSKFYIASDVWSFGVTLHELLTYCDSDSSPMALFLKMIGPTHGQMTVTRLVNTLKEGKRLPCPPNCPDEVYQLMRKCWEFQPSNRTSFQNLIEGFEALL

With `C[C@]1(C#N)C[C@@](CC#N)(n2ncc(-c3cc(-c4cn[nH]c4N)cc4ncccc34)n2)C1` [Example 322, cis-3-{4-[7-(5-amino-1H-pyrazol-4-yl)quinolin-5-yl]-2H-1,2,3-triazol-2-yl}-3-(cyanomethyl)-1-methylcyclobutanecarbonitrile], the half-inhibitory concentration (IC50) on TYK2 is 0.074 µM; at JAK1 it was 2.59 µM; at JAK2, 0.959 µM; on JAK3, greater than 10 µM.
In the same order, the values of `Cn1cc(-c2cc(-c3cnn(C4(CC#N)CN(S(C)(=O)=O)C4)n3)c3cccnc3c2)cn1` [Example 323, [3-{4-[7-(1-methyl-1H-pyrazol-4-yl)quinolin-5-yl]-2H-1,2,3-triazol-2-yl}-1-(methylsulfonyl)azetidin-3-yl]acetonitrile] are 0.069 µM, 2.84 µM, 0.244 µM and greater than 10 µM.
In the same order, the values of `Cn1cc(-c2cc(-c3cnn([C@]4(CC#N)C[C@@H](C#N)C4)n3)c3cccnc3c2)cn1` [Example 324, trans-3-(cyanomethyl)-3-{4-[7-(1-methyl-1H-pyrazol-4-yl)quinolin-5-yl]-2H-1,2,3-triazol-2-yl}cyclobutanecarbonitrile] are 0.03 µM, 1.42 µM, 0.144 µM and 9.93 µM.
In the same order, the values of `Cn1cc(-c2cc(-c3cnn(C4(CC#N)CC(C#N)C4)n3)c3cccnc3c2)cn1` (stereo not drawn) [Example 325, cis-3-(cyanomethyl)-3-{4-[7-(1-methyl-1H-pyrazol-4-yl)quinolin-5-yl]-2H-1,2,3-triazol-2-yl}cyclobutanecarbonitrile] are 0.011 µM, 0.319 µM, 0.032 µM and 2.15 µM.
With `N#CC[C@]1(n2ncc(-c3cc(-c4cnn(CCO)c4)cc4ncccc34)n2)C[C@H](C#N)C1` [Example 326, trans-3-(cyanomethyl)-3-(4-{7-[1-(2-hydroxyethyl)-1H-pyrazol-4-yl]quinolin-5-yl}-2H-1,2,3-triazol-2-yl)cyclobutanecarbonitrile], the IC50 at TYK2 was found to be 0.009 µM; at JAK1, 0.332 µM; at JAK2, 0.045 µM; at JAK3, 4.17 µM.
In the same order, the values of `N#CC[C@]1(n2ncc(-c3cc(-c4cnn(CCO)c4)cc4ncccc34)n2)C[C@@H](C#N)C1` [Example 327, cis-3-(cyanomethyl)-3-(4-{7-[1-(2-hydroxyethyl)-1H-pyrazol-4-yl]quinolin-5-yl}-2H-1,2,3-triazol-2-yl)cyclobutanecarbonitrile] are 0.02 µM, 0.262 µM, 0.052 µM and 3.29 µM.
In the same order, the values of `Cn1cc(-c2cc(-c3cnn(C4(CC#N)CC(C#N)C4)n3)c3cccnc3c2)c(CO)n1` (stereo not drawn) [Example 329, trans-3-(cyanomethyl)-3-(4-{7-[3-(hydroxymethyl)-1-methyl-1H-pyrazol-4-yl]quinolin-5-yl}-2H-1,2,3-triazol-2-yl)cyclobutanecarbonitrile] are 0.071 µM, 7 µM, 0.666 µM and greater than 10 µM.
In the same order, the values of `Cn1ncc(-c2cc(-c3cnn([C@]4(CC#N)C[C@@H](C#N)C4)n3)c3cccnc3c2)c1N` [Example 330, trans-3-{4-[7-(5-amino-1-methyl-1H-pyrazol-4-yl)quinolin-5-yl]-2H-1,2,3-triazol-2-yl}-3-(cyanomethyl)cyclobutanecarbonitrile] are 0.143 µM, 7.7 µM, 1.62 µM and greater than 10 µM.
`Cn1ncc(-c2cc(-c3cnn([C@]4(CC#N)C[C@H](C#N)C4)n3)c3cccnc3c2)c1N` [Example 331, cis-3-{4-[7-(5-amino-1-methyl-1H-pyrazol-4-yl)quinolin-5-yl]-2H-1,2,3-triazol-2-yl}-3-(cyanomethyl)cyclobutanecarbonitrile]: the IC50 on TYK2 was 0.115 µM; at JAK1 it was 3.7 µM; at JAK2, 0.74 µM; at JAK3, greater than 10 µM.
In the same order, the values of `Cn1ncc(-c2cc(-c3cnn([C@]4(CC#N)C[C@@H](C#N)C4)n3)c3cccnc3c2)c1C(N)=O` [Example 334, 4-(5-{2-[cis-3-cyano-1-(cyanomethyl)cyclobutyl]-2H-1,2,3-triazol-4-yl}quinolin-7-yl)-1-methyl-1H-pyrazole-5-carboxamide] are 0.736 µM, greater than 10 µM, 4.71 µM and greater than 10 µM.
In the same order, the values of `Cc1nc(-c2cc(-c3cnn([C@]4(CC#N)C[C@H](C#N)C4)n3)c3cccnc3c2)c[nH]1` [Example 336, cis-3-(cyanomethyl)-3-{4-[7-(2-methyl-1H-imidazol-4-yl)quinolin-5-yl]-2H-1,2,3-triazol-2-yl}cyclobutanecarbonitrile] are 0.008 µM, 0.326 µM, 0.032 µM and 3.58 µM.
In the same order, the values of `Cc1nc(-c2cc(-c3cnn([C@]4(CC#N)C[C@@H](C#N)C4)n3)c3cccnc3c2)c[nH]1` [Example 337, trans-3-(cyanomethyl)-3-{4-[7-(2-methyl-1H-imidazol-4-yl)quinolin-5-yl]-2H-1,2,3-triazol-2-yl}cyclobutanecarbonitrile] are 0.033 µM, 2.91 µM, 0.243 µM and greater than 10 µM.
Take `Cn1nncc1-c1cc(-c2cnn([C@]3(CC#N)C[C@H](C#N)C3)n2)c2cccnc2c1` [Example 338, cis-3-(cyanomethyl)-3-{4-[7-(1-methyl-1H-1,2,3-triazol-5-yl)quinolin-5-yl]-2H-1,2,3-triazol-2-yl}cyclobutanecarbonitrile]: the IC50 on TYK2 was 2.46 µM; at JAK1, greater than 10 µM; at JAK2, greater than 10 µM; on JAK3, greater than 10 µM.
`Cn1cc(-c2cc(-c3cnn([C@]4(CC#N)C[C@@H](C#N)C4)n3)c3cccnc3c2)nn1` [Example 339, trans-3-(cyanomethyl)-3-{4-[7-(1-methyl-1H-1,2,3-triazol-4-yl)quinolin-5-yl]-2H-1,2,3-triazol-2-yl}cyclobutanecarbonitrile]: the IC50 on TYK2 is 0.036 µM; at JAK1, 8.37 µM; on JAK2, 0.146 µM; at JAK3, greater than 10 µM.
In the same order, the values of `N#CCC1(n2ncc(-c3cc(-c4nc(CO)cs4)cc4ncccc34)n2)CC(C#N)C1` (stereo not drawn) [Example 340, cis-3-(cyanomethyl)-3-(4-{7-[4-(hydroxymethyl)-1,3-thiazol-2-yl]quinolin-5-yl}-2H-1,2,3-triazol-2-yl)cyclobutanecarbonitrile] are 0.013 µM, 0.432 µM, 0.094 µM and 8.91 µM.
`N#CC[C@]1(n2ncc(-c3cc(-c4nc(CO)cs4)cc4ncccc34)n2)C[C@H](C#N)C1` [Example 341, trans-3-(cyanomethyl)-3-(4-{7-[4-(hydroxymethyl)-1,3-thiazol-2-yl]quinolin-5-yl}-2H-1,2,3-triazol-2-yl)cyclobutanecarbonitrile]: the IC50 is 0.057 µM on TYK2, 3.24 µM on JAK1, 0.649 µM at JAK2 and greater than 10 µM on JAK3.
In the same order, the values of `N#CC[C@]1(n2ncc(-c3cc(-c4cnc(CO)s4)cc4ncccc34)n2)C[C@H](C#N)C1` [Example 342, trans-3-(cyanomethyl)-3-(4-{7-[2-(hydroxymethyl)-1,3-thiazol-5-yl]quinolin-5-yl}-2H-1,2,3-triazol-2-yl)cyclobutanecarbonitrile] are 0.135 µM, 2.58 µM, 0.99 µM and greater than 10 µM.
In the same order, the values of `N#CC[C@]1(n2ncc(-c3cc(-c4ncc(CO)s4)cc4ncccc34)n2)C[C@H](C#N)C1` [Example 343, trans-3-(cyanomethyl)-3-(4-{7-[5-(hydroxymethyl)-1,3-thiazol-2-yl]quinolin-5-yl}-2H-1,2,3-triazol-2-yl)cyclobutanecarbonitrile] are 0.065 µM, 3.34 µM, 0.66 µM and greater than 10 µM.
In the same order, the values of `N#CCC1(n2ncc(-c3cc(-c4scnc4CO)cc4ncccc34)n2)CC(C#N)C1` (stereo not drawn) [Example 344, trans-3-(cyanomethyl)-3-(4-{7-[4-(hydroxymethyl)-1,3-thiazol-5-yl]quinolin-5-yl}-2H-1,2,3-triazol-2-yl)cyclobutanecarbonitrile] are 0.776 µM, greater than 10 µM, greater than 10 µM and greater than 10 µM.
On to `N#CC[C@]1(n2ncc(-c3cc(-c4cc(CO)ns4)cc4ncccc34)n2)C[C@H](C#N)C1` [Example 345, trans-3-(cyanomethyl)-3-(4-{7-[3-(hydroxymethyl)-1,2-thiazol-5-yl]quinolin-5-yl}-2H-1,2,3-triazol-2-yl)cyclobutanecarbonitrile], for which the IC50 on TYK2 is 0.249 µM; at JAK1 it was 3.81 µM; at JAK2 it was 1.86 µM; at JAK3, greater than 10 µM.
In the case of `N#CCC1(n2ncc(-c3cc(-c4ccccn4)cc4ncccc34)n2)CC(C#N)C1` (stereo not drawn) [Example 346, cis-3-(cyanomethyl)-3-{4-[7-(pyridin-2-yl)quinolin-5-yl]-2H-1,2,3-triazol-2-yl}cyclobutanecarbonitrile], the IC50 is 0.023 µM at TYK2, 1.08 µM on JAK1, 0.123 µM at JAK2 and greater than 10 µM at JAK3.

The term IC50 denotes the concentration needed to halve the response being measured.

Source of the values: patent publication US11254668B2, “Pyrazolo[1,5-A]pyrazin-4-yl and related derivatives” (Pfizer Inc., priority 2017, dated 2022).
